From US20250059182A1, “SOS1 INHIBITORS” (Mirati Therapeutics, Inc., priority 2021, published 2025)

Columns and labels:
[1] = molecular target: T1, recombinant human SOS1 polypeptide (amino acids 560-1049) (Homo sapiens, UniProt Q07889); test: HTRF displacement assay: inhibition of labeled tracer binding to SOS1; conditions: Table A, Morrison equation for competitive binding
T1 construct: corresponding to amino acids 560-1049, expressed in E. Coli; made in house; host or cells: E. coli
T1 sequence (Q07889 560-1049): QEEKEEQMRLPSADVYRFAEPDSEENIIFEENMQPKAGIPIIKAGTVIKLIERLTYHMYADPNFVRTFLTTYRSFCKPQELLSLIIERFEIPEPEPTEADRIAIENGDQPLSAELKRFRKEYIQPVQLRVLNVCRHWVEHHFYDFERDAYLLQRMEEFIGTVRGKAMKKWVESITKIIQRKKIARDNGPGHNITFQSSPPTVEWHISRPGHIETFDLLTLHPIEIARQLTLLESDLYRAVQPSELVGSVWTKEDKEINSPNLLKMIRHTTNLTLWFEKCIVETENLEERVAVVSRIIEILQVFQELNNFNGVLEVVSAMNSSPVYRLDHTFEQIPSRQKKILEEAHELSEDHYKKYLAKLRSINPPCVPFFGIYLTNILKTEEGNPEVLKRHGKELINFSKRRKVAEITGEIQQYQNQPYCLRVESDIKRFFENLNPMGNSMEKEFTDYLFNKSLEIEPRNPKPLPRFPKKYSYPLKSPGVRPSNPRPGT

pERK in MKN1 cells = test: pERK inhibition, In-Cell Western (LI-COR Odyssey), MKN1 cells; assay type: cell-based; conditions: Homo sapiens, MKN-1, Table B; MKN1 or H358 cells (table does not say which); 0.5-1 hour incubation; read-out: IC50 (nM), pERK inhibition
Procedure, shortened: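 IC50 was fitted from % pERK inhibition, calculated as the GAPDH-normalised pERK signal of each well divided by the vehicle mean. Signal was imaged at 700 and 800 nm after fixation, methanol permeabilisation and dual antibody staining. Before fixation, MKN1 cells had received compound for about 0.5–1 h at 37 °C, top concentration 10 µM, nine 3-fold dilutions.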

| SMILES | Ki [1] [nM] | IC50 (pERK in MKN1 cells) [nM] |
| --- | --- | --- |
| Cc1c(C#N)cccc1[C@@H](C)Nc1nnc(C)c2cnc(N(C)C[C@H]3CCCN3)cc12 [Example 1-56, 2-methyl-3-((R)-1-((4-methyl-7-(methyl(((R)-pyrrolidin-2-yl)methyl)amino)pyrido[3,4-d]pyridazin-1-yl)amino)ethyl)benzonitrile] | 2.15 | 246 |
| Cc1c(C#N)cccc1[C@@H](C)Nc1nnc(C)c2cnc(N(C)C[C@@H]3CCCN3C)cc12 [Example 1-57, 2-methyl-3-((R)-1-((4-methyl-7-(methyl(((S)-1-methylpyrrolidin-2-yl)methyl)amino)pyrido[3,4-d]pyridazin-1-yl)amino)ethyl)benzonitrile] | 1.59 | 39.2 |
| Cc1c(C#N)cccc1[C@@H](C)Nc1nnc(C)c2cnc(N(C)C[C@H]3CCCN3C)cc12 [Example 1-58, 2-methyl-3-((R)-1-((4-methyl-7-(methyl(((R)-1-methylpyrrolidin-2-yl)methyl)amino)pyrido[3,4-d]pyridazin-1-yl)amino)ethyl)benzonitrile] | 1.89 | 73.8 |
| COCCN1CC2(C1)CN(c1cc3c(N[C@H](C)c4cccc(C#N)c4C)nnc(C)c3cn1)C2 [Example 1-59, (R)-3-(1-((7-(6-(2-methoxyethyl)-2,6-diazaspiro[3.3]heptan-2-yl)-4-methylpyrido[3,4-d]pyridazin-1-yl)amino)ethyl)-2-methylbenzonitrile] | 0.977 | 37.6 |
| CCOCCN1CC2(C1)CN(c1cc3c(N[C@H](C)c4cccc(C#N)c4C)nnc(C)c3cn1)C2 [Example 1-60, (R)-3-(1-((7-(6-(2-ethoxyethyl)-2,6-diazaspiro[3.3]heptan-2-yl)-4-methylpyrido[3,4-d]pyridazin-1-yl)amino)ethyl)-2-methylbenzonitrile] | 0.93 | 39.9 |
| Cc1c(C#N)cccc1[C@@H](C)Nc1nnc(C)c2cnc(N3CC4(CN(CCO)C4)C3)cc12 [Example 1-61, (R)-3-(1-((7-(6-(2-hydroxyethyl)-2,6-diazaspiro[3.3]heptan-2-yl)-4-methylpyrido[3,4-d]pyridazin-1-yl)amino)ethyl)-2-methylbenzonitrile] | 0.797 | 1340 |
| Cc1c(C#N)cccc1[C@@H](C)Nc1nnc(C)c2cnc(N3CC4(C3)CN(C(C)C)C4)cc12 [Example 1-62, (R)-3-(1-((7-(6-isopropyl-2,6-diazaspiro[3.3]heptan-2-yl)-4-methylpyrido[3,4-d]pyridazin-1-yl)amino)ethyl)-2-methylbenzonitrile] | 0.545 | 37.6 |
| Cc1c(C#N)cccc1[C@@H](C)Nc1nnc(C)c2cnc(N3CC4(CC(N(C)C)C4)C3)cc12 [Example 1-63, (R)-3-(1-((7-(6-(dimethylamino)-2-azaspiro[3.3]heptan-2-yl)-4-methylpyrido[3,4-d]pyridazin-1-yl)amino)ethyl)-2-methylbenzonitrile] | 0.664 | 48.9 |
| Cc1c([C@@H](C)Nc2nnc(C)c3cnc(N(C)[C@H]4CCNC4)cc23)cccc1C(F)(F)F [Example 1-64, N^7,4-dimethyl-N^1-((R)-1-(2-methyl-3-(trifluoromethyl)phenyl)ethyl)-N^7-((S)-pyrrolidin-3-yl)pyrido[3,4-d]pyridazine-1,7-diamine] | 0.246 | 66.3 |
| Cc1nnc(N[C@H](C)c2cccc(C(F)(F)F)c2F)c2cc(N(C)[C@H]3CCNC3)ncc12 [Example 1-65, N^1-((R)-1-(2-fluoro-3-(trifluoromethyl)phenyl)ethyl)-N^7,4-dimethyl-N^7-((S)-pyrrolidin-3-yl)pyrido[3,4-d]pyridazine-1,7-diamine] | 0.505 | 49.7 |
| Cc1c([C@@H](C)Nc2nnc(C)c3cnc(N4CC5(CC(N(C)C)C5)C4)cc23)cccc1C(F)(F)F [Example 1-66, (R)-7-(6-(dimethylamino)-2-azaspiro[3.3]heptan-2-yl)-4-methyl-N-(1-(2-methyl-3-(trifluoromethyl)phenyl)ethyl)pyrido[3,4-d]pyridazin-1-amine] | 0.106 | 32.4 |
| Cc1c(C#N)cccc1[C@@H](C)Nc1nnc(C)c2cnc(N3CCN(C)C(C)(C)C3)cc12 [Example 1-69, (R)-2-methyl-3-(1-((4-methyl-7-(3,3,4-trimethylpiperazin-1-yl)pyrido[3,4-d]pyridazin-1-yl)amino)ethyl)benzonitrile] | 0.849 | 39 |
| Cc1c(C#N)cccc1[C@@H](C)Nc1nnc(C)c2cnc(N3CCN(C(C)C)CC3)cc12 [Example 1-70, (R)-3-(1-((7-(4-isopropylpiperazin-1-yl)-4-methylpyrido[3,4-d]pyridazin-1-yl)amino)ethyl)-2-methylbenzonitrile] | 0.927 | 44.2 |
| Cc1c(C#N)cccc1[C@@H](C)Nc1nnc(C)c2cnc(N(C)[C@H]3CCOC3)cc12 [Example 1-71, 2-methyl-3-((R)-1-((4-methyl-7-(methyl((S)-tetrahydrofuran-3-yl)amino)pyrido[3,4-d]pyridazin-1-yl)amino)ethyl)benzonitrile] | 4.69 | 47.3 |
| Cc1nnc(N[C@H](C)c2cccc(C(F)(F)F)c2F)c2cc(N(C)[C@H]3CCOC3)ncc12 [Example 1-72, N^1-((R)-1-(2-fluoro-3-(trifluoromethyl)phenyl)ethyl)-N^7,4-dimethyl-N^7-((S)-tetrahydrofuran-3-yl)pyrido[3,4-d]pyridazine-1,7-diamine] | 1.74 | 118 |
| Cc1nnc(N[C@H](C)c2cccc(C(F)(F)F)c2F)c2cc(N(C)[C@@H]3CCOC3)ncc12 [Example 1-73, N^1-((R)-1-(2-fluoro-3-(trifluoromethyl)phenyl)ethyl)-N^7,4-dimethyl-N^7-((R)-tetrahydrofuran-3-yl)pyrido[3,4-d]pyridazine-1,7-diamine] | 1.16 | 54.8 |
| Cc1c(C#N)cccc1[C@@H](C)Nc1nnc(C)c2cnc(N(C)[C@@H]3CCOC3)cc12 [Example 1-74, 2-methyl-3-((R)-1-((4-methyl-7-(methyl((R)-tetrahydrofuran-3-yl)amino)pyrido[3,4-d]pyridazin-1-yl)amino)ethyl)benzonitrile] | 2.34 | 39.9 |
| Cc1nnc(N[C@H](C)c2cccc(C(F)(F)F)c2F)c2cc(N(C)[C@@H]3CCN(C(C)C)C3)ncc12 [Example 1-76, N^1-((R)-1-(2-fluoro-3-(trifluoromethyl)phenyl)ethyl)-N^7-((R)-1-isopropylpyrrolidin-3-yl)-N^7,4-dimethylpyrido[3,4-d]pyridazine-1,7-diamine] | 0.367 | 119 |
| Cc1nnc(N[C@H](C)c2cccc(C(F)(F)F)c2F)c2cc(N(C)[C@H]3CCN(C(C)C)C3)ncc12 [Example 1-77, N^1-((R)-1-(2-fluoro-3-(trifluoromethyl)phenyl)ethyl)-N^7-((S)-1-isopropylpyrrolidin-3-yl)-N^7,4-dimethylpyrido[3,4-d]pyridazine-1,7-diamine] | 0.647 | 121 |
| Cc1c(C#N)cccc1[C@@H](C)Nc1nnc(C)c2cnc(N(C)[C@H]3CCCN(C)C3)cc12 [Example 1-81, 2-methyl-3-((R)-1-((4-methyl-7-(methyl((S)-1-methylpiperidin-3-yl)amino)pyrido[3,4-d]pyridazin-1-yl)amino)ethyl)benzonitrile] | 0.865 | 62.4 |
| Cc1c(C#N)cccc1[C@@H](C)Nc1nnc(C)c2cnc(N(C)[C@@H]3CCCN(C)C3)cc12 [Example 1-82, 2-methyl-3-((R)-1-((4-methyl-7-(methyl((R)-1-methylpiperidin-3-yl)amino)pyrido[3,4-d]pyridazin-1-yl)amino)ethyl)benzonitrile] | 1.16 | 85.2 |
| Cc1nnc(N[C@H](C)c2cccc(C(F)(F)F)c2F)c2cc(N(C)C3CCN(C)CC3)ncc12 [Example 1-83, (R)-N^1-(1-(2-fluoro-3-(trifluoromethyl)phenyl)ethyl)-N^7,4-dimethyl-N^7-(1-methylpiperidin-4-yl)pyrido[3,4-d]pyridazine-1,7-diamine] | 0.788 | 82.8 |
| Cc1c(C#N)cccc1[C@@H](C)Nc1nnc(C)c2cnc(N3CCS(=N)(=O)CC3)cc12 [Example 1-84, (R)-3-(1-((7-(1-imino-1-oxido-thiomorpholino)-4-methylpyrido[3,4-d]pyridazin-1-yl)amino)ethyl)-2-methylbenzonitrile] | 2.34 | 2730 |
| Cc1nnc(N[C@H](C)c2cccc(C(F)(F)F)c2F)c2cc(N(C)[C@H]3CCCN(C)C3)ncc12 [Example 1-85, N^1-((R)-1-(2-fluoro-3-(trifluoromethyl)phenyl)ethyl)-N^7,4-dimethyl-N^7-((S)-1-methylpiperidin-3-yl)pyrido[3,4-d]pyridazine-1,7-diamine] | 0.662 | 185 |
| Cc1nnc(N[C@H](C)c2cccc(C(F)(F)F)c2F)c2cc(N3CC[C@@H](N(C)C)C3)ncc12 [Example 1-86, 7-((R)-3-(dimethylamino)pyrrolidin-1-yl)-N-((R)-1-(2-fluoro-3-(trifluoromethyl)phenyl)ethyl)-4-methylpyrido[3,4-d]pyridazin-1-amine] | 0.372 | 50.8 |
